Laboratory results taken from article PMC8778187, “A New Oxygen Containing Pyclen-Type Ligand as a Manganese(II) Binder for MRI and ^52Mn PET Applications: Equilibrium, Kinetic, Relaxometric, Structural and Radiochemical Studies” (Molecules, 2022).
Like-named read-outs stand apart in the source and are kept apart here. Marks after values point to notes of the source that are not given here.

Columns and labels:
[1] = Metal challenge of 52Mn-labeled complexes (transmetalation); assay type: physicochemical; conditions: ZnCl2, CuCl2, MgCl2, CaCl2 mixture, room temperature, 7 days
Experimental: Metal challenge of [[^52Mn]Mn(3,9-PC2A)] and [[^52Mn]Mn(3,9-OPC2A)]. 49 µL aqueous solution of each radiolabeled complex (~3.75 MBq) was incubated with a 1:1 mixture of 0.1 mM ZnCl2 and 0.01 mM CuCl2 (1 µL), and a 1:1 mixture of 1.02 mM MgCl2 and 2.28 mM CaCl2 (50 µL) at room temperature. Samples were taken from the mixtures at the beginning and after 1, 2, 3, and 20 h, and 2, 3, and 7 days later. For the analysis of the samples, the above-mentioned radio-TLC method was applied.

[2] = Stability test of 52Mn-labeled complexes in rat serum (radio-TLC); assay type: in vitro ADME; conditions: room temperature, up to 7 days
Experimental: Stability test of [[^52Mn]Mn(3,9-PC2A)] and [[^52Mn]Mn(3,9-OPC2A)] in rat serum. 100 µL aqueous solution of each radiolabeled complex (~7.5 MBq) was mixed with 100 uL of rat serum, and incubated at room temperature. Aliquots were taken and analyzed at the beginning and after 1, 2, 3, and 20 h, and 2, 3, and 7 days later, by the radio-TLC method, as explained mentioned above.

[3] = Octanol/water partition coefficient (logP) of 52Mn-labeled complexes; assay type: physicochemical
Experimental: Determination of logP values of the [[^52Mn]Mn(3,9-PC2A)] and [[^52Mn]Mn(3,9-OPC2A)] chelates. 100 µL aqueous solution of each radiolabeled complex (~7.5 MBq) was added to 100 µL of octanol. The mixture was shaken with a vortex shaker (5 min, 1000 rpm) and centrifuged (5 min, 10,000 rpm). A total of 3 × 20 µL from the octanol and 3 × 20 µL from the water were pipetted into test tube, respectively. The radioactivity of the samples was measured with a gamma detector.

[4] = EDTA challenge of 52Mn-labeled complexes (transchelation); assay type: physicochemical; conditions: 0.2 M H4EDTA (pH 7.4), room temperature, 7 days
Experimental: EDTA challenge of [[^52Mn]Mn(3,9-PC2A)] and [[^52Mn]Mn(3,9-OPC2A)]. 50 µL aqueous solution of each radiolabeled complex (~3.75 MBq) was incubated with 50 µL of 0.2 M EDTA (pH 7.4) solution at room temperature. Aliquots were taken and analyzed by the radio-TLC method, as mentioned above, at the beginning and after 1, 2, 3, and 20 h, and 2, 3, and 7 days incubation time.

[5] = Mg^2+ complex, cited from earlier work
[6] = T = 25 °C, cited from earlier work; for log KMnL / log KMnHL / pMn: ref 16 (PC2A ligands), 12 (DO2A ligands); for log KMnL / pMn: 20 (H21,7-O2DO2A); for pMn: pMn = −log(Mn(II)free), cMn^2+ = cligand = 1 × 10^−5 M, pH = 7.4
[7] = Ca^2+ complex, cited from earlier work
[8] = Cu^2+ complex, T = 25 °C, I = 0.15 M NaCl, cited from earlier work; for log KMnHL / log KMnL: ref 16 (PC2A ligands), 12 (DO2A ligands), 20 (H21,7-O2DO2A)
[9] = Zn^2+ complex, T = 25 °C, I = 0.15 M NaCl, cited from earlier work; for log KMnL / log KMnHL: ref 16 (PC2A ligands), 12 (DO2A ligands)
[10] = T = 25 °C, I = 0.15 M NaCl, ref 16 (PC2A ligands), 12 (DO2A ligands), cited from earlier work; for log K1^H / log K2^H / log K3^H / Σlog Κ2^H: 20 (H21,7-O2DO2A); for Σlog Κ2^H: log K1^H + log K2^H
[11] = Mn(II) complex, 25 °C, pH = 7.4, cited from earlier work
[12] = cited from earlier work
[13] = cited from earlier work; remark: listed apart in the source
[14] = pH = 6.0, 25 equivalents of Zn(II), 37 °C, cited from earlier work
[15] = T = 25 °C, I = 0.15 M NaCl, ref 16 (PC2A ligands), 20 (H21,7-O2DO2A)
[16] = T = 25 °C, I = 0.15 M NaCl, ref 16 (PC2A ligands), 12 (DO2A ligands), 20 (H21,7-O2DO2A)
[17] = 0.49 T, ref 16 (PC2A ligands), 12 (DO2A ligands), 20 (H21,7-O2DO2A)

O=C([O-])CN1CCOCCN(CC(=O)[O-])Cc2cccc(n2)C1.[52Mn+2] [[[^52Mn]Mn(3,9-OPC2A)]]
complex dissociated in metal challenge [1]: about 30%
stability in rat serum [2]: remained intact even after seven days
logP [3]: −2.56
transchelation in H4EDTA challenge [4]: slower and was not completed after seven days

O=C(O)CN1CCNCCN(CC(=O)O)Cc2cccc(n2)C1 [H23,9-PC2A, pyclen-3,9-diacetate]
log KMnHL ([5]; T = 25 °C, I = 0.15 M NaCl): 5.91
log KMnL [5, 15]: 9.84
log KMnL ([5]; value in parenthesis): 8.4
log KMnL ([6]; Mn^2+ complex, I = 0.15 M NaCl): 17.09
log KMnHL ([6]; Mn^2+ complex, I = 0.15 M NaCl): 2.14
pMn [6]: 8.64
log KMnHL ([7]; T = 25 °C, I = 0.15 M NaCl): 5.08
log KMnL [7, 16]: 9.92
log KMnL ([7]; value in parenthesis): 10.0
log KMnHL [8]: 2.12 ^g
log KMnL [8]: 23.58 ^g
log KMnL ([9]; 20 (H21,7-O2DO2A)): 19.49
log KMnHL [9]: 2.74
log K1^H [10]: 12.25
log K2^H [10]: 5.97
log K3^H [10]: 3.47
log K4^H [10]: 1.99
Σlog Κ2^H [10]: 18.22
r2p ([11]; 0.49 T): 3.96 mM⁻¹ s⁻¹
r1p [11, 17]: 2.91 mM⁻¹ s⁻¹
r1p ([11]; 1.41 T): 2.24 mM⁻¹ s⁻¹
r2p ([11]; 1.41 T): 4.82 mM⁻¹ s⁻¹

O=C(O)CN1CCNCc2cccc(n2)CN(CC(=O)O)CC1 [H23,6-PC2A]
log KMnHL ([5]; T = 25 °C, I = 0.15 M NaCl): 5.87
log KMnL [5, 15]: 8.11
log KMnL ([6]; Mn^2+ complex, I = 0.15 M NaCl): 15.53
log KMnHL ([6]; Mn^2+ complex, I = 0.15 M NaCl): 3.06
pMn [6]: 8.09
log KMnHL ([7]; T = 25 °C, I = 0.15 M NaCl): 5.27
log KMnL [7, 16]: 9.57
log KMnHL [8]: 2.37 ^g
log KMnL [8]: 24.09 ^g
log KMnL ([9]; 20 (H21,7-O2DO2A)): 20.37
log KMnHL [9]: 2.36
log K1^H [10]: 10.72
log K2^H [10]: 8.37
log K3^H [10]: 3.81
log K4^H [10]: 1.26
Σlog Κ2^H [10]: 19.09
r2p ([11]; 0.49 T): 3.49 mM⁻¹ s⁻¹
r1p [11, 17]: 2.72 mM⁻¹ s⁻¹
r1p ([11]; 1.41 T): 2.40 mM⁻¹ s⁻¹
r2p ([11]; 1.41 T): 4.20 mM⁻¹ s⁻¹

O=C(O)CN1CCOCCN(CC(=O)O)CCOCC1 [H21,7-O2DO2A]
log KMnL [5, 15]: 3.91
log KMnLOH ([6]; Mn^2+ complex, I = 0.15 M NaCl): 12.38
log KMnL ([6]; Mn^2+ complex, I = 0.15 M NaCl): 9.38
pMn [6]: 6.67
log KMnL [7, 16]: 6.96
log KMnLOH [8]: 11.95
log KMnHL [8]: 2.46
log KMnL [8]: 14.56
log KMnLOH ([9]; DO2A values carry footnote f, ref 12 (DO2A ligands), 20 (H21,7-O2DO2A)): 11.40
log KMnL ([9]; 20 (H21,7-O2DO2A)): 10.55
log K1^H [10]: 8.05
log K2^H [10]: 7.43
log K3^H [10]: 2.06
Σlog Κ2^H [10]: 15.48
r1p [11, 17]: 2.86 mM⁻¹ s⁻¹

O=C([O-])CN1CCNCCN(CC(=O)[O-])Cc2cccc(n2)C1.[52Mn+2] [[[^52Mn]Mn(3,9-PC2A)]]
inertness in metal challenge [1]: stayed intact
stability in rat serum [2]: remained intact even after seven days
logP [3]: −2.51
transchelation in H4EDTA challenge [4]: transchelation was complete

O=C([O-])CN1CCNCCN(CC(=O)[O-])Cc2cccc(n2)C1.[Mn+2] [[Mn(3,9-PC2A)]]
pMn [6]: 8.64
t1/2 (h) at pH = 7.4 ([12]; extrapolated to pH = 7.4, ref 16 (PC2A complexes), 12, 13, 20): 21.0 h
k3 ([12]; metal assisted dissociation, T = 25 °C, I = 0.15 M NaCl): 0.036 M⁻¹ s⁻¹
k1 ([12]; proton assisted dissociation, T = 25 °C, I = 0.15 M NaCl, ref 16 (PC2A complexes), 12, 13, 20): 221 M⁻¹ s⁻¹
KMnL x H ([12]; protonation constant of the complex from kinetic fit, T = 25 °C, I = 0.15 M NaCl): 3.6 × 10^3
KML x Cu ([12]; stability constant of dinuclear intermediate, T = 25 °C, I = 0.15 M NaCl, unit assumed): 26 M⁻¹
r1^298_20 MHz ([13]; 20 MHz, 298 K): 2.91 mM⁻¹ s⁻¹
ΔH^‡ ([13]; activation enthalpy of water exchange): 37.5 kJmol^−1
q ([13]; hydration number, fixed during the fitting procedure): 1
kex^298 ([13]; water exchange rate with bulk solvent): 1.26e+08 s⁻¹
kex^298 ([13]; water exchange rate): 12.6 10^7s^−1
kobs ([14]; previously reported): (3.28 ± 0.03) × 10^−4 s^−1

O=C([O-])CN(CC(=O)[O-])C1CCCCC1N(CC(=O)[O-])Cc1ccccn1.[Mn+2] (stereo not drawn) [[Mn(PyC3A)]]
kobs [14]: (6.76 ± 0.04) × 10^−4 s^−1
